Test results: the NIST ThermoML archive (doi:10.1021/je034203p)

Assay: xn = mol fraction of the nth substance listed
Conditions: 298.15 K, 101.3 kPa, Liquid; for viscosity: Capillary tube (Ostwald / Ubbelohde) method

CCCO [propan-1-ol] + ClC=C(Cl)Cl
x2 = 0
Conditions | mass density [kg/m3] | viscosity [mPa·s]
– | 800 | 1.954

ClC(Cl)=C(Cl)Cl [tetrachloroethene] + CCO
Conditions | mass density [kg/m3] | viscosity [mPa·s]
x1 = 0.0593 | 868.1 | 1.073
x1 = 0.1243 | 949.6 | 1.04
x1 = 0.1957 | 1029.4 | 1.007
x1 = 0.2746 | 1111.3 | 0.9767
x1 = 0.3619 | 1191.8 | 0.9475
x1 = 0.4601 | 1273.7 | 0.9189
x1 = 0.57 | 1356 | 0.8939
x1 = 0.6944 | 1440 | 0.8729
x1 = 0.8364 | 1524.9 | 0.8551
x1 = 1 | 1610.2 | 0.8474

ClC(Cl)(Cl)Cl [tetrachloromethane] + ClC(Cl)=C(Cl)Cl
x2 = 0
Conditions | mass density [kg/m3] | viscosity [mPa·s]
– | 1586.1 | 0.9096

ClC(Cl)=C(Cl)Cl [tetrachloroethene] + COC(C)=O
Conditions | mass density [kg/m3] | viscosity [mPa·s]
x1 = 0.0796 | 989.2 | 0.4237
x1 = 0.1628 | 1054.7 | 0.4749
x1 = 0.25 | 1120.7 | 0.5226
x1 = 0.3415 | 1188.6 | 0.5729
x1 = 0.4373 | 1255.3 | 0.6243
x1 = 0.5388 | 1322.7 | 0.6708
x1 = 0.6452 | 1393.1 | 0.7166
x1 = 0.7573 | 1464.2 | 0.7614
x1 = 0.8749 | 1535.4 | 0.8038
x1 = 1 | 1610.2 | 0.8474

COC(C)=O [methyl ethanoate] + ClC=C(Cl)Cl
x2 = 0
Conditions | mass density [kg/m3] | viscosity [mPa·s]
– | 923.9 | 0.3711

CCOC(C)=O [ethyl acetate] + ClC=C(Cl)Cl
x2 = 0
Conditions | mass density [kg/m3] | viscosity [mPa·s]
– | 894 | 0.4274

CCCO [propan-1-ol] + ClC(Cl)=C(Cl)Cl
x2 = 0
Conditions | mass density [kg/m3] | viscosity [mPa·s]
– | 800 | 1.954

ClC(Cl)(Cl)Cl [tetrachloromethane] + ClC=C(Cl)Cl
x2 = 0
Conditions | mass density [kg/m3] | viscosity [mPa·s]
– | 1586.1 | 0.9096

ClC(Cl)=C(Cl)Cl [tetrachloroethene] + Cc1ccccc1
Conditions | mass density [kg/m3] | viscosity [mPa·s]
x1 = 0.1034 | 932 | 0.5799
x1 = 0.2062 | 1004.7 | 0.6014
x1 = 0.3079 | 1078.4 | 0.6234
x1 = 0.4093 | 1151.3 | 0.6477
x1 = 0.5095 | 1225.3 | 0.6743
x1 = 0.6092 | 1300.1 | 0.7053
x1 = 0.7083 | 1376.8 | 0.7377
x1 = 0.806 | 1451.7 | 0.7701
x1 = 0.9038 | 1530.1 | 0.8084
x1 = 1 | 1610.2 | 0.8474

ClC=C(Cl)Cl [trichloroethene] + CO
Conditions | mass density [kg/m3] | viscosity [mPa·s]
x1 = 0.0477 | 853.7 | 0.5565
x1 = 0.1014 | 920.3 | 0.5667
x1 = 0.1616 | 985.5 | 0.5738
x1 = 0.2308 | 1052.1 | 0.5833
x1 = 0.3105 | 1117.9 | 0.595
x1 = 0.4033 | 1184.5 | 0.6017
x1 = 0.5125 | 1251.2 | 0.6021
x1 = 0.643 | 1318.4 | 0.5908
x1 = 0.8021 | 1386.3 | 0.575
x1 = 1 | 1455.7 | 0.551

ClC(Cl)=C(Cl)Cl [tetrachloroethene] + c1ccccc1
Conditions | mass density [kg/m3] | viscosity [mPa·s]
x1 = 0.0883 | 939.8 | 0.6141
x1 = 0.1788 | 1011.5 | 0.6279
x1 = 0.272 | 1084.6 | 0.6438
x1 = 0.3674 | 1156.7 | 0.6618
x1 = 0.4655 | 1228.8 | 0.6834
x1 = 0.5671 | 1302.3 | 0.7088
x1 = 0.6706 | 1377.4 | 0.7367
x1 = 0.777 | 1453.2 | 0.7693
x1 = 0.8873 | 1531.7 | 0.8051
x1 = 1 | 1610.2 | 0.8474

CCCCO [butan-1-ol] + ClC=C(Cl)Cl
x2 = 0
Conditions | mass density [kg/m3] | viscosity [mPa·s]
– | 806.3 | 2.538

ClC(Cl)=C(Cl)Cl [tetrachloroethene] + CCCO
Conditions | mass density [kg/m3] | viscosity [mPa·s]
x1 = 0.0749 | 879 | 1.79
x1 = 0.1541 | 958.4 | 1.632
x1 = 0.2379 | 1038.5 | 1.488
x1 = 0.3269 | 1117.4 | 1.35
x1 = 0.4214 | 1197.5 | 1.218
x1 = 0.5229 | 1278.9 | 1.11
x1 = 0.6302 | 1360.9 | 1.011
x1 = 0.745 | 1442.8 | 0.9253
x1 = 0.8679 | 1525.7 | 0.8657
x1 = 1 | 1610.2 | 0.8474

CCC(C)=O [butanone] + ClC=C(Cl)Cl
x2 = 0
Conditions | mass density [kg/m3] | viscosity [mPa·s]
– | 797.4 | 0.4011

ClC(Cl)=C(Cl)Cl [tetrachloroethene] + CC(C)O
Conditions | mass density [kg/m3] | viscosity [mPa·s]
x1 = 0.0763 | 864.9 | 1.855
x1 = 0.1567 | 946.4 | 1.676
x1 = 0.2417 | 1026.7 | 1.51
x1 = 0.3313 | 1107.5 | 1.364
x1 = 0.4266 | 1189.3 | 1.236
x1 = 0.5276 | 1271.6 | 1.123
x1 = 0.6349 | 1355.4 | 1.025
x1 = 0.7486 | 1437.6 | 0.9401
x1 = 0.8705 | 1523.6 | 0.8824
x1 = 1 | 1610.2 | 0.8474

CCO [ethanol] + ClC=C(Cl)Cl
x2 = 0
Conditions | mass density [kg/m3] | viscosity [mPa·s]
– | 787.4 | 1.112

ClC(Cl)=C(Cl)Cl [tetrachloroethene] + CO
Conditions | mass density [kg/m3] | viscosity [mPa·s]
x1 = 0.042 | 868.7 | 0.5644
x1 = 0.0897 | 950.1 | 0.5806
x1 = 0.1446 | 1030.1 | 0.5981
x1 = 0.2082 | 1112 | 0.6209
x1 = 0.2828 | 1192.6 | 0.6449
x1 = 0.372 | 1274.4 | 0.6751
x1 = 0.4795 | 1355.9 | 0.7069
x1 = 0.6123 | 1439.7 | 0.7412
x1 = 0.7804 | 1524.3 | 0.7875
x1 = 1 | 1610.2 | 0.8474

CC(C)=O [acetone] + ClC(Cl)=C(Cl)Cl
x2 = 0
Conditions | mass density [kg/m3] | viscosity [mPa·s]
– | 780.8 | 0.3121
